Test system: person's skin
Assay: Experimentation with ingredient concentrations in the ointment formulation applied to a person's skin
Format: in vivo, human
Conditions: Zinc Oxide amount lesser than 4.70% of the formulation
Source text: The ointment formulation includes an occlusive and nourishing ingredient in an amount configured to reduce moisture evaporation from and seal the skin. The specific occlusive and nourishing ingredient in the subject ointment formulation may be Lanolin. Lanolin is additionally selected for its ability to supply the skin with a majority of the 23 proteinogenic, i.e., protein-building, amino acids, which combine into peptide chains to form the building blocks of a vast array of proteins. In an exemplary 126.0 ml volume sample of the ointment formulation, the specific volume of the Lanolin ingredient was 103.53 ml, or 82.17%. Although Lanolin made up 82.17% of the exemplary sample, the allowable range of the Lanolin ingredient in the ointment formulation is approximately 74-85%.
The ointment formulation having the specific disclosed volume of Lanolin is for a moderate to severe condition of the skin. Although the amount of Lanolin may be increased for more severe conditions, the disclosed specific concentration of 82.17% is near the maximum that may be used while maintaining the necessary amounts of the other ingredients. Accordingly, as the volume of Lanolin is adjusted for severity of the particular skin condition, the amounts of other ingredients to be described with specificity below would have to be adjusted accordingly. […]

[O]=[Zn] [Zinc Oxide]
effectiveness: has not shown to be effective

— patent US20140271920A1, “SKIN OINTMENT FORMULATION” (priority 2013, published 2014)
